Assay: xn = mol fraction of the nth substance listed
Conditions: 101.3 kPa, Liquid

CCCCCCCCCC [decane] + CCC(C)O
Conditions	mass density, 293.15 K [kg/m3]	mass density, 298.15 K [kg/m3]	mass density, 303.15 K [kg/m3]	speed of sound, 293.15 K [m/s]	speed of sound, 298.15 K [m/s]	speed of sound, 303.15 K [m/s]	viscosity, 293.15 K [mPa·s]	viscosity, 298.15 K [mPa·s]	viscosity, 303.15 K [mPa·s]
x2 = 0	729.9	726.1	722.3	1254	1235	1215	0.911	0.845	0.787
x2 = 0.0488	730.9	727.1	723.2	1250	1230	1210	0.9	0.833	0.774
x2 = 0.0992	732.4	728.5	724.6	1246	1226	1207	0.905	0.836	0.776
x2 = 0.2038	736.2	732.2	728.2	1240	1220	1201	0.926	0.854	0.791
x2 = 0.3041	740.4	736.4	732.4	1235	1215	1195	0.956	0.88	0.812
x2 = 0.3972	745	741	736.9	1230	1211	1191	1.008	0.922	0.847
x2 = 0.498	751	746.9	742.8	1227	1207	1187	1.09	0.989	0.901
x2 = 0.5972	758.1	754	749.8	1224	1204	1185	1.222	1.091	0.983
x2 = 0.703	767.5	763.3	759	1223	1203	1184	1.454	1.286	1.142
x2 = 0.8001	777.7	773.5	769.2	1224	1204	1185	1.787	1.548	1.351
x2 = 0.9002	790.5	786.4	782.1	1225	1207	1188	2.389	2.026	1.736
x2 = 0.9497	798.2	794	789.8	1228	1209	1191	2.879	2.418	2.047

— the NIST ThermoML archive (doi:10.1016/j.jct.2003.12.005)
